Data on eight molecules can be found in patent US6342582B1, “Reaction and dissolving medium for peptides and synthesis method using this medium” (Rhodia Chimie, priority 1990, dated 2002).

Counter-ions that a name gives are not always drawn. Where a SMILES comes first, the peptide text is derived from it. The star is where a group is joined. OBn = c1ccc(CO*)cc1

Data set [1] can be described thus: Dissolving experiments: solubility of the peptide intermediate in solvent or solvent/additive mixture. The following applies: 25° C.; for Solubility in the 4/1 dichloromethane/phenol mixture: 4/1 dichloromethane/phenol by weight; for Solubility in 4/1 dichloromethane/dimethylformamide: comparison, additive not part of the invention.
Experimental: Protocol for dissolving experiments
The solubilities of the peptide intermediate were determined as follows, at a temperature of 25° C.
An accurately weighed amount of the peptide intermediate is placed in a Pyrex tube. The solvent or mixture of solvents to be tested is then introduced using a precision pipette so as to obtain a ratio of mass of peptide/volume of solvent of 8 g/100 cm^3.
The tube, closed by a screw stopper, is then placed on a HEIDOLPH agitator, TOP-MIX model, vibrating at its maximum speed for 60 seconds.
If not, the volume of solvent is doubled and the procedure is started again.
At the end of 4 successive dilutions without complete dissolution, the measurements are repeated on a smaller amount of solid.
Remarks: The composition of the solvent/additive mixtures is expressed by weight.
Data set [2] in a line: Distribution of the peptide between dichloromethane (with phenol) and water. The following applies: dichloromethane (12 cm^3) + 3.9 g phenol / aqueous KHCO3 2 N (3 cm^3); HPLC. Type of data set: physicochemical. Here is the method:
With a view to purification of this tetrapeptide, by washing with water at the end of its synthesis, the distribution of this peptide between dichloromethane and water was studied as follows.
A solution of Gly-Gly-Phe-Leu-OBzl hydrochloride (0.9 mmole) in dichloromethane (12 cm^3) is stirred vigorously in the presence of an aqueous KHCO3 solution (2 N; 3 cm^3). This mixture yields an emulsion which remains stable for several days. A comparative experiment was carried out in the presence of phenol:
A distribution experiment carried out in accordance with Example 15 after the addition of 3.9 g of phenol to the organic solution yields, after identical stirring, two clear liquid phases, the settling out of which is complete in less than 15 minutes.

A short description of data set [3]: Solubility in dichloromethane determined by HPLC, external standardization, on a saturated solution. It is filed as physicochemical. As for the experimental part: The solubility in dichloromethane was determined by HPLC, using external standardization, on a saturated solution of Boc-Gly5-OCH3.
The solubility in dichloromethane was determined by HPLC, by external standardization on the supernatant of a saturated solution; the other solubilities were determined as in Example 1: […]

[4] abbreviates: comparison additive, concentrations lower than 2 g/100 cm^3 were not tested.

As to `NC(N)=NCCC[C@H](N)C(=O)N1CCC[C@H]1C(=O)O` [Afg-Pro.2HCl, L-arginyl-L-proline dihydrochloride] (H-Arg-Pro-OH), in data set [1], the “Solubility in the 4/1 dichloromethane/phenol mixture” value is given as “s = 2 g/100 cm^3” and the Solubility in dichloromethane entry was “s < 0.05 g/100 cm^3”.
For the molecule `CC(C)C[C@H](NC(=O)[C@H](Cc1ccccc1)NC(=O)CNC(=O)CN)C(=O)OCc1ccccc1` [Gly-Gly-Phe-Leu-OBzl, Glycyl-glycyl-L-phenylalanyl-L-leucine benzyl ester] (H-GGFL-OBn), the “Share of the tetrapeptide employed found in the aqueous phase” value in data set [2] is 0.4%.
Turning to `CC(C)C[C@H](N)C(=O)N[C@@H](CCCNC(=N)N)C(=O)N1CCC[C@H]1C(=O)NCC(N)=O` [Leu-Arg-Pro-Gly-NH2.HCl, L-leucyl-L-arginyl-L-prolyl-glycinamide hydro-chloride] (H-LRPG-NH2), the “Solubility in 4/1 dichloromethane/3-trifluoromethylphenol” value in data set [1] (4/1 dichloromethane/3-trifluoromethylphenol by weight) was “s = 4 g/100 cm^3”. Also, in data set [1] (4/1 dichloromethane/4-methoxyphenol by weight), the “Solubility in 4/1 dichloromethane/4-methoxyphenol” value is “s = 4 g/100 cm^3”. Moreover, in data set [1], the “Solubility in 4/1 dichloromethane/dimethylformamide” value was “s < 0.5 g/100 cm^3”, the “Solubility in the 4/1 dichloromethane/phenol mixture” value is recorded as “s = 4 g/100 cm^3” and the Solubility in dichloromethane entry was “s < 0.05 g/100 cm^3”. Besides, the “Solubility in 5/1 dichloromethane/2-hydroxypyridine” value in data set [1] (5/1 dichloromethane/2-hydroxypyridine by weight) is listed as “s = 1 g/100 cm^3”.
As for `NC(=O)CNC(=O)[C@@H]1CCCN1` [Pro-Gly-NH2.HCl, L-prolyl-glycinamide hydrochloride] (H-Pro-Gly-NH2), in data set [1], the “Solubility in 4/1 dichloromethane/dimethylformamide” value is reported as “s < 0.5 g/100 cm^3”, the “Solubility in the 4/1 dichloromethane/phenol mixture” value was “s > 16 g/100 cm^3” and the Solubility in dichloromethane result was “s < 0.05 g/100 cm^3”.
Turning to `COC(=O)CNC(=O)CNC(=O)CNC(=O)CNC(=O)CNC(=O)OC(C)(C)C` [Boc-Gly5-OCH3, N-tert-butoxycarbonylpentaglycine methyl ester], the “Solubility in 2-chlorophenol” value in data set [1] (2-chlorophenol alone) was “s > 8 g/100 cm^3”. The “Solubility in 4/1 anisole/phenol” value in data set [1] (4/1 anisole/phenol by weight) is listed as “s = 4 g/100 cm^3”. Further, in data set [1], the “Solubility in the 4/1 dichloromethane/phenol mixture” value was “s = 4 g/100 cm^3”. In data set [1] (20/1 dichloromethane/phenol by weight), the “Solubility in 20/1 dichloromethane/phenol” value is on record as “s = 0.5 g/100 cm^3”. Also, the Solubility in anisole entry in data set [1] (anisole) was “s < 0.05 g/100 cm^3”. Besides, in data set [3], the “Solubility in dichloromethane (HPLC)” value is given as “s = 0.33 g/100 cm^3”.
With `COC(=O)[C@H](Cc1ccc(O)cc1)NC(=O)[C@@H](N)CO` [Ser-Tyr-OCH3.HCl, L-serinyl-L-tyrosine methyl ester hydrochloride] (H-Ser-Tyr-OMe), in data set [1], the Solubility in dichloromethane entry is on record as “s < 0.05 g/100 cm^3”.
For the molecule `CC(C)(C)OC(=O)NCC(=O)NCC(=O)NCC(=O)NCC(=O)NCC(=O)OCc1ccccc1` [Boc-Gly-Gly-Gly-Gly-Gly-O-CH2-Ph, N-tert-butoxycarbonylpentaglycine benzyl ester], the “Solubility in 9/1 dichloromethane/phenol” value in data set [1] (9/1 dichloromethane/phenol by weight) is reported as “s > 5 g/100 cm^3”. Besides, in data set [1] (setting [4]), the “Solubility in 9/1 dichloromethane/2-octanol” value is reported as “s < 2 g/100 cm^3”, the “Solubility in 9/1 dichloromethane/dimethylformamide” value is “s < 2 g/100 cm^3”, the “Solubility in 9/1 dichloromethane/pivalic acid” value is “s < 2 g/100 cm^3” and the “Solubility in 9/1 dichloromethane/trifluoroethanol” value is “s < 2 g/100 cm^3”. In addition, the “Solubility in dichloromethane saturated with LiCl” value in data set [1] (setting [4]) was “s < 2 g/100 cm^3”. Further, the “Solubility in dichloromethane (HPLC)” value in data set [3] is listed as “s = 0.07 g/100 cm^3”.
As for `N[C@@H](Cc1c[nH]cn1)C(=O)N[C@@H](Cc1c[nH]c2ccccc12)C(=O)O` [His,Trp.HCl, L-histidinyl-L-tryptophan hydrochloride], in data set [1], the “Solubility in the 4/1 dichloromethane/phenol mixture” value was “s = 2 g/100 cm^3” and the Solubility in dichloromethane result is listed as “s < 0.05 g/100 cm^3”.
